From PMC9856672, “SGC-CAMKK2-1: A Chemical Probe for CAMKK2” (Cells, 2023)
Read-outs that look alike come from different tables or passages of the source.

Columns and labels:
CAMKK1 = molecular target: T1, CAMKK1 (Homo sapiens, UniProt Q8N5S9); assay: DiscoverX KINOMEscan binding assay at 1 μM, CAMKK1
T1 construct: purchased Eurofins DiscoverX KINOMEscan
Description: (§1) Compounds were screened at Eurofins DiscoverX (Freemont, CA) at a single concentration of 1 μM using binding assays as described previously. Briefly, extracts containing DNA-tagged kinases are incubated with immobilized kinase inhibitors and the test compound (at 1 μM). Test compounds that displace the immobilized broad-spectrum inhibitors are detected by quantitative PCR. The results are expressed as the percentage of kinase bound to the bead compared to DMSO control (%control). […] The formula to calculate S10 depicted in Equation (1). (1) S10(1 μM)=number of wild type kinase with % control ≤10/number of wild type kinase tested
(§2) A series of furo [2,3-b]pyridines were generated with modifications off the core at the 3- and 5-positions. They were profiled in the CAMKK2 enzyme assay we have described and utilized previously. Briefly, the enzyme assay measures the ability of the compound to inhibit the transfer of a radiolabeled phosphate from ATP to a CAMKK2-specific peptide. […] 5 was then profiled in the DiscoverX KINOMEscan™ assay panel to provide a view of the overall kinome-wide selectivity (Supplemental S2). This assay platform evaluates compound affinity for a panel of more than 400 wild-type human kinases. The S10 (1 µM), a calculated score that is reflective of broad kinome selectivity, is 0.002 for the probe molecule.

MYO3B = molecular target: T2, MYO3B (Homo sapiens, UniProt Q8WXR4); assay: DiscoverX KINOMEscan binding assay at 1 μM, MYO3B
T2 construct: purchased Eurofins DiscoverX KINOMEscan
T2 sequence (Q8WXR4 1-1341): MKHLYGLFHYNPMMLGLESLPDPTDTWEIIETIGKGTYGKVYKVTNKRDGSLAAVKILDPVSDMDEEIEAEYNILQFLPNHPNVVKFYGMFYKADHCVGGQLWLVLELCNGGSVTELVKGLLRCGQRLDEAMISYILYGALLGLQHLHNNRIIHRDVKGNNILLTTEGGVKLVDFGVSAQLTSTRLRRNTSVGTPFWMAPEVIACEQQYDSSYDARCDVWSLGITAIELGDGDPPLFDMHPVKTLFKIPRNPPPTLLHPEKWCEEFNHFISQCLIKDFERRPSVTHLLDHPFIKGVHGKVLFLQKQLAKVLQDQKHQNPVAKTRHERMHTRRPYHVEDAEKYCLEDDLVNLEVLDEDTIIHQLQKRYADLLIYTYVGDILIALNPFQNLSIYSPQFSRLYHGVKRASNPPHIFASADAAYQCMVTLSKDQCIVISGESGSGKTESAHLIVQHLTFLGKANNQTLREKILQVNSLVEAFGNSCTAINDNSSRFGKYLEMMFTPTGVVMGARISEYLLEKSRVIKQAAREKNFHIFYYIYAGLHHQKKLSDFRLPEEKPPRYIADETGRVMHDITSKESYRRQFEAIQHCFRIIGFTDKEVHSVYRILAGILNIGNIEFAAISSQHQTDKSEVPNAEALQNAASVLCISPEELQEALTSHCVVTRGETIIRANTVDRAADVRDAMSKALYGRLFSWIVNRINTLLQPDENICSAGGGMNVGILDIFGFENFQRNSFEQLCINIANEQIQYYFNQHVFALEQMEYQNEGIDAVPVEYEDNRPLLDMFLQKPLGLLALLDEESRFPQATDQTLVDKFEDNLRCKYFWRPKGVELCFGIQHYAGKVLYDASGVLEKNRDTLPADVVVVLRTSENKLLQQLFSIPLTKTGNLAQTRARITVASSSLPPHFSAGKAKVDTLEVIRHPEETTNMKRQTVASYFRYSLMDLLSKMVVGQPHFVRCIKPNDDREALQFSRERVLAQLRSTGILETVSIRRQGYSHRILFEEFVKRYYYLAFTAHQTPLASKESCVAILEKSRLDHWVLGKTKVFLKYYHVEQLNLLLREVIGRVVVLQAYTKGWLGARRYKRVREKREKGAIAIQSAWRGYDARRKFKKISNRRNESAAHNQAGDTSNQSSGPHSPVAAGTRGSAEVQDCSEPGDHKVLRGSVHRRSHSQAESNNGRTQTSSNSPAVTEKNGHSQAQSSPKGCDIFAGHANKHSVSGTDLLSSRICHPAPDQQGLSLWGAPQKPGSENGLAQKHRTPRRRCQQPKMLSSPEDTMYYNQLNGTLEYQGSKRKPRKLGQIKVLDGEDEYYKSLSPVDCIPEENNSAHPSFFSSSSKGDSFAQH
Description: as §1, §2

PIP4K2C = molecular target: T3, PIP4K2C (Homo sapiens, UniProt Q8TBX8); assay: DiscoverX KINOMEscan binding assay at 1 μM, PIP4K2C
T3 construct: purchased Eurofins DiscoverX KINOMEscan
T3 sequence (Q8TBX8 1-421): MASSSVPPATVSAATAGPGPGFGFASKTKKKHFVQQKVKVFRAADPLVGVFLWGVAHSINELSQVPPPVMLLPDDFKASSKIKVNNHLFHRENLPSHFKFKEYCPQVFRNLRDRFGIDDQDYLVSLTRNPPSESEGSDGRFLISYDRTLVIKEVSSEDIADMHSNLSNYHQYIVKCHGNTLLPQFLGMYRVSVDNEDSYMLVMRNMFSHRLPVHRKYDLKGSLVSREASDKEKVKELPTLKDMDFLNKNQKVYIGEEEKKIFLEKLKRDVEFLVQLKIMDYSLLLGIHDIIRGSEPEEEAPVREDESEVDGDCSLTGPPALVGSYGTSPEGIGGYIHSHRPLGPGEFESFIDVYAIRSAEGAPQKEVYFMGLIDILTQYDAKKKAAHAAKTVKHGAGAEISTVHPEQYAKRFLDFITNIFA
Description: as §1
(§3) In the DiscoverX KinomeSCAN® assay panel, when screened at a concentration of 1 µM, compound 7 bound to very few kinases with S10 (1 µM) = 0.005. The only two kinases with significant binding for compound 7 were PIP4K2C with a PoC = 7.2 and PIM2 with PoC = 7.4. PIP4K2C is a lipid kinase that has very little catalytic activity, and there is no commercially available kinase activity assay, so this potential off-target activity for the negative control remains uncharacterized.

CAMKK2 = CAMKK2 (Homo sapiens, UniProt Q96RR4); assay: DiscoverX KINOMEscan binding assay at 1 μM, CAMKK2; design: purchased Eurofins DiscoverX KINOMEscan
Description: as §1, §2

PIM2 = PIM2 (Homo sapiens, UniProt Q9P1W9); assay: DiscoverX KINOMEscan binding assay at 1 μM, PIM2; design: purchased Eurofins DiscoverX KINOMEscan
Description: as §1, §3

[1] = percentage of control, compound at 1 μM, read-out: PoC (1 μM) CAMKK1
[2] = percentage of control, compound at 1 μM, read-out: PoC (1 μM) CAMKK2

Chain of CAMKK2 (Q96RR4 whole entry): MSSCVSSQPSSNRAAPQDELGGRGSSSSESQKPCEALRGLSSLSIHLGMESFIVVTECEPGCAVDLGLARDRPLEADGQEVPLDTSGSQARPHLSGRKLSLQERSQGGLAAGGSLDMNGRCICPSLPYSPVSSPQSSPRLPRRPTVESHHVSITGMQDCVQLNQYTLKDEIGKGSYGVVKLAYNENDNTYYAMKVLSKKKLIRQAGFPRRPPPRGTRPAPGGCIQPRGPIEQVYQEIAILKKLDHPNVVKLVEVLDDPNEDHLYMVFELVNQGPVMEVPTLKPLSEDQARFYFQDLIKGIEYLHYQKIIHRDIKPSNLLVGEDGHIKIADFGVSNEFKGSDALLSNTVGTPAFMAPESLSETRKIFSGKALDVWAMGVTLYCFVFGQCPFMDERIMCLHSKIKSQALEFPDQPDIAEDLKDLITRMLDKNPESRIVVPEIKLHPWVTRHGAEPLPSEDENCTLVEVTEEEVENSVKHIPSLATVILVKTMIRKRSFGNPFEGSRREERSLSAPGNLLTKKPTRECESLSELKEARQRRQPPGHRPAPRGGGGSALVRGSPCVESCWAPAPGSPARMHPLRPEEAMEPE
Chain of PIM2 (Q9P1W9 whole entry): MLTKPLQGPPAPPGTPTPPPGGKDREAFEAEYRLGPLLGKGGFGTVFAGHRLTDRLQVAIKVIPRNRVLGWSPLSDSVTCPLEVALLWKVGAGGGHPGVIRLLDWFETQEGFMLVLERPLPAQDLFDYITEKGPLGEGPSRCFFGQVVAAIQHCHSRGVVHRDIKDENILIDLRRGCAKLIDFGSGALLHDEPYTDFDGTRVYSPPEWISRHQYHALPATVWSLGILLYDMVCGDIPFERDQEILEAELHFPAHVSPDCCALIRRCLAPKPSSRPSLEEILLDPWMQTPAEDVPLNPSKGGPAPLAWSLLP
T1 sequence (Q8N5S9 whole entry): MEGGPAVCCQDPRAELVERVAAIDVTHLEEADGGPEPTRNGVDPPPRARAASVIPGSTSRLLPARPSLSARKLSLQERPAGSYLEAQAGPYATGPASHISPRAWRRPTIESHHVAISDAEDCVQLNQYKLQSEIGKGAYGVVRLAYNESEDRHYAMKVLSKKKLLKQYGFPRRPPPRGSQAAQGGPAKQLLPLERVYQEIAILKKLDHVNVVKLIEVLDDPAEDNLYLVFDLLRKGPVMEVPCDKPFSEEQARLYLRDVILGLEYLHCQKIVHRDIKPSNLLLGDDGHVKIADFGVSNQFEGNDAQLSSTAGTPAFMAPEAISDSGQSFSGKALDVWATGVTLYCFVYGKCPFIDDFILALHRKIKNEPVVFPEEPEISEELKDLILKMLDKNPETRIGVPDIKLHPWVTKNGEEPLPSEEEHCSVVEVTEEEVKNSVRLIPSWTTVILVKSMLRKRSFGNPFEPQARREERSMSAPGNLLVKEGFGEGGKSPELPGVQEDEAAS

`Cc1cccc(-c2cnc3occ(-c4ccc(C(=O)O)c(C5CCCC5)c4)c3c2)c1` [SGC-CAMKK2-1 (YL-36)] was tested, and the remaining binding at 1 µM (CAMKK1; 1000 nM, Entrez CAMKK1, read-out: Percent Control) was 15%, the remaining binding at 1 µM (MYO3B; 1000 nM, Entrez MYO3B, read-out: Percent Control) was 100% and the remaining binding at 1 µM (PIP4K2C; 1000 nM, DiscoveRx PIP5K2C, Entrez PIP4K2C, read-out: Percent Control) was 61%. The remaining binding at 1 µM (CAMKK2; 1000 nM, Entrez CAMKK2, read-out: Percent Control) was 7.5% and the remaining binding at 1 µM (PIM2; 1000 nM, Entrez PIM2, read-out: Percent Control) was 96%.

Compound `O=C(O)c1ccc(-c2coc3ncc(-c4ccccc4)cc23)cc1Cl` [Compound 7] has a remaining binding at 1 µM (CAMKK1; [1]) of 91%, a remaining binding at 1 µM (PIP4K2C; percentage of control, compound at 1 μM, read-out: PoC (1 μM) PIP4K2C) of 7.2% and a remaining binding at 1 µM (CAMKK2; [2]) of 84%. For the same compound, the remaining binding at 1 µM (PIM2; percentage of control, compound at 1 μM, read-out: PoC (1 μM) PIM2) was 7.4%.

With `O=C(O)c1ccc(-c2coc3ncc(-c4ccccc4)cc23)cc1Cl` [SGC-CAMKK2-1N (UNC-YL-83)] the remaining binding at 1 µM (CAMKK1; CAMKK1, 1000 nM, read-out: Percent Control) was 91%, the remaining binding at 1 µM (MYO3B; Compound Concentration 1000 nM, read-out: Percent Control) was 100% and the remaining binding at 1 µM (PIP4K2C; PIP5K2C (PIP4K2C), 1000 nM, read-out: Percent Control) was 7.2%. It also gave a remaining binding at 1 µM (CAMKK2; CAMKK2, 1000 nM, read-out: Percent Control) of 84% and a remaining binding at 1 µM (PIM2; PIM2, 1000 nM, read-out: Percent Control) of 7.4%.

`Cc1cccc(-c2cnc3occ(-c4ccc(C(=O)O)c(C5CCCC5)c4)c3c2)c1` [Compound 5] was tested, and the remaining binding at 1 µM (CAMKK1; [1]) was 12%, the remaining binding at 1 µM (MYO3B; percentage of control, compound at 1 μM, read-out: PoC (1 μM) MYO3B) was 45% and the remaining binding at 1 µM (CAMKK2; [2]) was 5.4%.
